We go through 9 molecules from patent US20150223453A1, “QUATERNARY AMMONIUM ACID COMPOUNDS AND COMPOSITIONS FOR DISINFECTION, SANITIZATION, AND CLEANING” (LONZA INC., priority 2014, published 2015).

The subject of this assay is Pa. Put plainly: OECD Quantitative Method for Evaluating Bactericidal Activity of Microbiocides Used on Hard, Non-Porous Surfaces. The format is cell-based, Pseudomonas aeruginosa. To be noted: for level of efficacy / number of organisms reduced (in words): quaternary ammonium acid compounds based on different acids, summary of the OECD tests. An excerpt:
One acknowledged method for determining micro efficacy is the OECD (Organisation for Economic Co-operation and Development) Quantitative Method for Evaluating Bactericidal Activity of Microbiocides Used on Hard, Non-Porous Surfaces. This method entails inoculating small, stainless steel disks called carriers with inoculum, in the presence of hard water. It is theorized that microorganisms, such as pseudomonas, form a biofilm on these carriers. Due to the size of the disk, the presence of a biofilm and the surface tension of the liquid on the disk, this requires qua-based systems to be generally over-formulated to achieve the required efficacy to pass testing. This provides an unfair advantage to both acids and oxidizers used as biocides because of their innate ability to oxidize steel, remove the biofilm without being affected by hard water. This invention combats this issue by combining the biocidal power of quaternary ammonium compound with the oxidizing power of acid.

[1] abbreviates: 800 ppm Active/375 ppm Hard Water/5% Organic Soil/5 Minute Contact Time.

Where only a bound is given, the exact number is not on record here.

As to Sulfuric, the “OECD results of Quaternium Ammonium Acid Molecule, Test 1” value (from here on “OECD results … Test 1”) under setting [1] is recorded as 3.14.

In the case of `CC(=O)[O-].CCCCCCCCCC[N+](C)(C)CCCCCCCCCC` [Acetic], the “level of efficacy / number of organisms reduced (in words)” value is “greatest level of efficacy”. For the same molecule, under setting [1], the “OECD results … Test 1” value amounted to 5.71 and the “OECD results of Quaternium Ammonium Acid Molecule, Test 2” value (from here on “OECD results … Test 2”) stood at 4.93. Further, where the note is “listed as acetic acid”, the “level of efficacy / number of organisms reduced (in words)” value was “highest number of organisms reduced”.

Take `CCCCCCCCCC[N+](C)(C)CCCCCCCCCC.O=[N+]([O-])[O-]` [Nitric]: the “OECD results … Test 1” value under setting [1] was 1.94.

Turning to “didecyl dimethyl ammonium carbonate/bicarbonate [Quat Carbonate, reference compound]”, where the note is “Quaternium Ammonium Chloride in Acid Solution, 800 ppm Active/375 ppm Hard Water/5% Organic Soil/5 Minute Contact Time”, the “Log10 Reduction vs. Pa” value is listed as less than 2.82 Log10.

Consider `CCCCCCCCCC[N+](C)(C)CCCCCCCCCC.O=C([O-])CO` [Glycolic], for which the “OECD results … Test 1” value under setting [1] stood at 1.99.

`O=P(O)(O)O` [Phosphoric]: the “level of efficacy / number of organisms reduced (in words)” value is reported as “greatest level of efficacy”. In addition, under setting [1], the “OECD results … Test 2” value is on record as 4.93. The “level of efficacy / number of organisms reduced (in words)” value (listed as phosphoric acid) was “highest number of organisms reduced”.

In the case of `O=C(O)C(O)C(O)C(=O)O` (stereo not drawn) [Tartaric], the “level of efficacy / number of organisms reduced (in words)” value is recorded as “greatest level of efficacy”. Besides, under setting [1], the “OECD results … Test 1” value is on record as 4.22 and the “OECD results … Test 2” value was 3.05. Besides, the “level of efficacy / number of organisms reduced (in words)” value (listed as tartaric acid) is reported as “highest number of organisms reduced”.

On to `CCCCCCCCCC[N+](C)(C)CCCCCCCCCC.NS(=O)(=O)[O-]` [Sulfamic], for which the “level of efficacy / number of organisms reduced (in words)” value is “greatest level of efficacy”. Also, the “OECD results … Test 1” value under setting [1] is given as 4.66. Besides, the “level of efficacy / number of organisms reduced (in words)” value (listed as sulfamic acid) was “highest number of organisms reduced”.

As for Oxalic, the “level of efficacy / number of organisms reduced (in words)” value is “greatest level of efficacy”. Besides, under setting [1], the “OECD results … Test 1” value is recorded as 5.54. For the same molecule, under “listed as oxalic acid”, the “level of efficacy / number of organisms reduced (in words)” value is reported as “highest number of organisms reduced”.
